Results published in US6664214B1, “Uracil compounds and use thereof” (Sumitomo Chemical Company, Limited, priority 1999, dated 2003).

Experiments:
ivyleaf morningglory [1] = experiment: Test Example 3: foliar treatment on upland field (Table 4); format: in vivo, Ipomoea hederacea; set-up: key: 0: little difference in the degree of germination or growth between the treated plants and the untreated plants at the time of examination; 10: the treated plants died completely or their germination or growth was completely inhibited; conditions: examined 16 days after application, index 0-10
Protocol: (§1) In the examples, the compounds are identified by the Compound Numbers as in Tables 1 to 3. […] A cylindrical plastic pot having a diameter of 10 cm and a depth of 10 cm was filled with soil and seeded with ivyleaf momingglory, velvetleaf and barnyardgrass. These test plants were grown in a greenhouse for 10 days. Then each of compounds listed below was formulated into an emulsifiable concentrate according to Formulation Example 2 and then diluted to the prescribed amount with water containing a spreading agent and the dilution was uniformly sprayed over the foliage of the test plants with sprayer at a rate of 1000 liters per hectare. After the application, the test plants were grown in the greenhouse for 16 days, and the herbicidal activity were determined.

velvetleaf [2] = experiment: as above; format: in vivo, Abutilon theophrasti; set-up: key: 0: little difference in the degree of germination or growth between the treated plants and the untreated plants at the time of examination; 10: the treated plants died completely or their germination or growth was completely inhibited; conditions: examined 16 days after application, index 0-10
Protocol: as §1

barnyardgrass [3] = experiment: as above; format: in vivo, Echinochloa crus-galli; set-up: key: 0: little difference in the degree of germination or growth between the treated plants and the untreated plants at the time of examination; 10: the treated plants died completely or their germination or growth was completely inhibited; conditions: examined 16 days after application, index 0-10
Protocol: as §1

ivyleaf morningglory [4] = experiment: Test Example 4: soil surface treatment on upland field (Table 5); format: in vivo, Ipomoea hederacea; set-up: key: 0: little difference in the degree of germination or growth between the treated plants and the untreated plants at the time of examination; 10: the treated plants died completely or their germination or growth was completely inhibited; conditions: 500 g/ha active ingredient, examined 12 days after application, index 0-10
Source text: (§2) In the examples, the compounds are identified by the Compound Numbers as in Tables 1 to 3. […] A cylindrical plastic pot having a diameter of 10 cm and a depth of 10 cm was filled with soil and seeded ivyleaf morningglory, velvetleaf and barnyardgrass. Then each of compounds listed below was formulated into an emulsifiable concentrate according to Formulation Example 2 and then diluted to the prescribed amount with water and dilution was uniformly sprayed over the surface of the soil with sprayer at the rate of 1000 liters per hectare. After the application, the test plants were grown in a greenhouse for 12 days, and the herbicidal activity was examined.

velvetleaf [5] = experiment: as above; format: in vivo, Abutilon theophrasti; set-up: key: 0: little difference in the degree of germination or growth between the treated plants and the untreated plants at the time of examination; 10: the treated plants died completely or their germination or growth was completely inhibited; conditions: 500 g/ha active ingredient, examined 12 days after application, index 0-10
Source text: as §2

barnyardgrass [6] = experiment: as above; format: in vivo, Echinochloa crus-galli; set-up: key: 0: little difference in the degree of germination or growth between the treated plants and the untreated plants at the time of examination; 10: the treated plants died completely or their germination or growth was completely inhibited; conditions: 500 g/ha active ingredient, examined 12 days after application, index 0-10
Source text: as §2

large crabgrass = experiment: Test Example 5: foliar treatment on upland field (Table 6); format: in vivo, Digitaria sanguinalis; set-up: key: 0: little difference in the degree of germination or growth between the treated plants and the untreated plants at the time of examination; 10: the treated plants died completely or their germination or growth was completely inhibited; conditions: 125 g/ha, 19 days after application, index 0 to 10
Protocol: In the examples, the compounds are identified by the Compound Numbers as in Tables 1 to 3. […] A pot for plug seedlings seeded with large crabgrass. The test plant was grown in a greenhouse for 14 days, then transplanted into a plastic pot having an area of 17×12 cm^2 and a depth of 7 cm, and further the test plants were grown in the greenhouse for 8 days. Then each of compounds listed below was formulated into an emulsifiable concentrate according to Formulation Example 2 and then diluted to the prescribed amount with water containing a spreading agent and the dilution was uniformly sprayed over the foliage of the test plants with sprayer at a rate of 1000 liters per hectare. After the application, the test plants were grown in the greenhouse for 19 days, and the herbicidal activity were determined.

ivyleaf morningglory [7] = experiment: Test Example 1: foliar treatment on upland field; format: in vivo, Ipomoea hederacea; conditions: 125 g/ha, 8 days after application
Protocol: (§3) In the examples, the compounds are identified by the Compound Numbers as in Tables 1 to 3.
(§4) A cylindrical plastic pot having a diameter of 10 cm and a depth of 10 cm was filled with soil and seeded with ivyleaf momingglory, velvetleaf and bamyardgrass. These test plants were grown in a greenhouse for 9 days. Then each of compounds 1-1, 2-1, 2-2, 3-1 and 3-101 was formulated into an emulsifiable concentrate according to Formulation Example 2 and then diluted to the prescribed amount with water containing a spreading agent and the dilution was uniformly sprayed over the foliage of the test plants with sprayer at a rate of 1000 liters per hectare. After the application, the test plants were grown in the greenhouse for 8 days, and the herbicidal activity were determined.

velvetleaf [8] = experiment: Test Example 1: foliar treatment on upland field; format: in vivo, Abutilon theophrasti; conditions: 125 g/ha, 8 days after application
Protocol: as §3, §4

barnyardgrass [9] = experiment: Test Example 1: foliar treatment on upland field; format: in vivo, Echinochloa crus-galli; conditions: 125 g/ha, 8 days after application
Protocol: as §3, §4

velvetleaf [10] = experiment: Test Example 2: soil surface treatment on upland field; format: in vivo, Abutilon theophrasti; conditions: 500 g/ha, 12 days after application
Source text: as §2, with “seeded with velvetleaf.” for “seeded ivyleaf morningglory, velvetleaf and barnyardgrass.”, “compounds 1-1, 2-1, 2-2, 3-1 and 3-101” for “compounds listed below”, “at a” for “at the”

SMILES	Herbicidal effect Ivyleaf morningglory (ivyleaf morningglory [1]; 125 g/ha active ingredient)	Herbicidal effect Velvetleaf (velvetleaf [2]; 125 g/ha active ingredient)	Herbicidal effect Barnyardgrass (barnyardgrass [3]; 125 g/ha active ingredient)	Herbicidal effect Ivyleaf morningglory (ivyleaf morningglory [4])	Herbicidal effect Velvetleaf (velvetleaf [5])	Herbicidal effect Barnyardgrass (barnyardgrass [6])	Herbicidal effect Large crabgrass (large crabgrass)	Herbicidal effect Ivyleaf morningglory (ivyleaf morningglory [1]; 32 g/ha active ingredient)	Herbicidal effect Velvetleaf (velvetleaf [2]; 32 g/ha active ingredient)	Herbicidal effect Barnyardgrass (barnyardgrass [3]; 32 g/ha active ingredient)	growth of ivyleaf morningglory (ivyleaf morningglory [7])	growth of velvetleaf (velvetleaf [8])	growth of barnyardgrass (barnyardgrass [9])	germination of velvetleaf (velvetleaf [10])
COC(=O)C(C)Oc1ccc(C(Oc2cc(-n3c(=O)cc(C(F)(F)F)n(C)c3=O)c(F)cc2Cl)c2ccccc2)cc1 (stereo not drawn) [Compound 1-246, Methyl 2-[4-({2-chloro-4-fluoro-5-[3-methyl-2,6-dioxo-4-(trifluoromethyl)-1,2,3,6-tetrahydropyrimidine-1-yl]phenoxy}(phenyl)methyl)phenoxy]propionate]	10	10	8	8	10	10	10	–	–	–	–	–	–	–
COC(=O)COc1cccc(COc2cc(-n3c(=O)cc(C(F)(F)F)n(C)c3=O)c(F)cc2Cl)c1 [Compound 2-11, Methyl 2-[3-({2-chloro-4-fluoro-5-[3-methyl-2,6-dioxo-4-(trifluoromethyl)-1,2,3,6-tetrahydropyrimidine-1-yl]phenoxy}methyl)phenoxy]acetate]	10	10	8	10	10	9	10	–	–	–	–	–	–	–
COC(=O)C(C)Oc1cccc(C(C)Oc2cc(-n3c(=O)cc(C(F)(F)F)n(C)c3=O)c(F)cc2Cl)c1 (stereo not drawn) [Compound 2-21, methyl 2-[3-(1-{2-chloro-4-fluoro-5-[3-methyl-2,6-dioxo-4-(trifluoromethyl)-1,2,3,6-tetrahydropyrimidine-1-yl]phenoxy}ethyl)phenoxy]propionate]	–	–	–	10	10	10	10	10	10	10	–	–	–	–
COC(=O)C(C)Oc1cc(COc2cc(-n3c(=O)cc(C(F)(F)F)n(C)c3=O)c(F)cc2Cl)ccc1Cl (stereo not drawn) [Compound 2-41, Methyl 2-[2-chloro-5-({2-chloro-4-fluoro-5-[3-methyl-2,6-dioxo-4-(trifluoromethyl)-1,2,3,6-tetrahydropyrimidine-1-yl]phenoxy}methyl)phenoxy]propionate]	10	10	10	10	10	10	10	–	–	–	–	–	–	–
COC(=O)C(C)Oc1cc(COc2cc(-n3c(=O)cc(C(F)(F)F)n(C)c3=O)c(F)cc2Cl)ccc1OC (stereo not drawn) [Compound 2-61, Methyl 2-[5-({2-chloro-4-fluoro-5-[3-methyl-2,6-dioxo-4-(trifluoromethyl)-1,2,3,6-tetrahydropyrimidine-1-yl]phenoxy}methyl)-2-methoxyphenoxy]propionate]	10	10	10	10	10	10	10	–	–	–	–	–	–	–
COC(=O)C(C)Oc1cc(COc2cc(-n3c(=O)cc(C(F)(F)F)n(C)c3=O)c(F)cc2Cl)ccc1C (stereo not drawn) [Compound 2-101, Methyl 2-[5-({2-chloro-4-fluoro-5-[3-methyl-2,6-dioxo-4-(trifluoromethyl)-1,2,3,6-tetrahydropyrimidine-1-yl]phenoxy}methyl)-2-methylphenoxy]propionate]	10	10	10	10	10	10	10	–	–	–	–	–	–	–
COC(=O)C(C)Oc1ccc(Cl)c(COc2cc(-n3c(=O)cc(C(F)(F)F)n(C)c3=O)c(F)cc2Cl)c1Cl (stereo not drawn) [Compound 2-161, Methyl 2-[2,4-dichloro-3-({2-chloro-4-fluoro-5-[3-methyl-2,6-dioxo-4-(trifluoromethyl)-1,2,3,6-tetrahydropyrimidine-1-yl]phenoxy}methyl)phenoxy]propionate]	10	10	10	6	10	5	10	–	–	–	–	–	–	–
COC(=O)C(C)Oc1ccc(Cl)c(COc2cc(-n3c(=O)cc(C(F)(F)F)n(C)c3=O)c(F)cc2Cl)c1 (stereo not drawn) [Compound 2-187, Methyl 2-[4-chloro-3-({2-chloro-4-fluoro-5-[3-methyl −2,6-dioxo-4-(trifluoromethyl)-1,2,3,6-tetrahydropyrimidine-1-yl]phenoxy}methyl)phenoxy]propionate]	10	10	10	10	10	9	10	–	–	–	–	–	–	–
COC(=O)C(C)Oc1ccccc1COc1cc(-n2c(=O)cc(C(F)(F)F)n(C)c2=O)c(F)cc1Cl (stereo not drawn) [Compound 3-1, methyl 2-[2-({2-chloro-4-fluoro-5-[3-methyl-2,6-dioxo-4-(trifluoromethyl)-1,2,3,6-tetrahydropyrimidine-1-yl]phenoxy}methyl)phenoxy]propionate]	–	–	–	–	–	–	–	–	–	–	completely controlled	completely controlled	completely controlled	completely controlled
